Experiments:
barnyardgrass [1] = assay: Test Example 1: foliage treatment, upland pot test; type: in vivo, Echinochloa crus-galli L.; details: active ingredient 500 g/ha, observed 18th to 23rd day, 0 = non-treated, 100 = complete kill
Procedure, shortened: (§1)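 Visual growth-control score, 0% (like untreated) to 100% (complete kill), taken on days 18 to 23 after foliar spraying. Leaf stage at treatment: barnyardgrass 1.3–2.8, rice 1.2–2.6, wheat 1.3–2.4, soybean 0.1–0.4. Spray: wettable powder or EC in 500 L/ha water, 0.1% v/v spreader added.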

crabgrass [2] = assay: Test Example 1: foliage treatment, upland pot test; type: in vivo, Digitaria sanguinalis L.; details: active ingredient 500 g/ha, observed 18th to 23rd day, 0 = non-treated, 100 = complete kill
green foxtail [3] = assay: Test Example 1: foliage treatment, upland pot test; type: in vivo, Setaria viridis L.; details: active ingredient 500 g/ha, observed 18th to 23rd day, 0 = non-treated, 100 = complete kill
redroot pigweed [4] = assay: Test Example 1: foliage treatment, upland pot test; type: in vivo, Amaranthus retroflexus L.; details: active ingredient 500 g/ha, observed 18th to 23rd day, 0 = non-treated, 100 = complete kill
prickly sida [5] = assay: Test Example 1: foliage treatment, upland pot test; type: in vivo, Sida spinosa L.; details: active ingredient 500 g/ha, observed 18th to 23rd day, 0 = non-treated, 100 = complete kill
velvetleaf [6] = assay: Test Example 1: foliage treatment, upland pot test; type: in vivo, Abutilon theophrasti MEDIC.; details: active ingredient 500 g/ha, observed 18th to 23rd day, 0 = non-treated, 100 = complete kill
rice [7] = assay: Test Example 1: foliage treatment, upland pot test; type: in vivo, Oryza sativa L.; details: crop, active ingredient 500 g/ha, observed 18th to 23rd day, 0 = non-treated, 100 = complete kill
Procedure, shortened: as §1

wheat [8] = assay: Test Example 1: foliage treatment, upland pot test; type: in vivo, Triticum spp.; details: crop, active ingredient 500 g/ha, observed 18th to 23rd day, 0 = non-treated, 100 = complete kill
Description: Upland field soil was put into a 1/170,000 ha pot, and seed of various plants were sown. Then, when the plants reached predetermined leaf stages ((1) barnyardgrass: 1.3 to 2.8 leaf stages, (2) crabgrass: 1.0 to 2.8 leaf stages, (3) green foxtail: 1.3 to 2.6 leaf stages, (4) redroot pigweed: 0.1 to 1.2 leaf stages, (5) prickly sida: 0.1 to 1.2 leaf stages, (6) velvetleaf: 0.1 to 1.2 leaf stages, (7) tall morningglory: 0.1 to 1.5 leaf stages, (8) rice: 1.2 to 2.6 leaf stages, (9) wheat: 1.3 to 2.4 leaf stages, (10) corn, 2.1 to 3.2 leaf stages, (11) soybean: 0.1 to 0.4 leaf stage), a wettable powder or emulsifiable concentrate having the compound of the present invention formulated in accordance with a usual formulation method, was weighed so that the active ingredient would be a predetermined amount, and diluted with water in an amount of 500 L/ha. To the diluted solution, 0.1% (v/v) of agricultural spreader was added. The herbicide thus adjusted was applied by a small size sprayer for foliage treatment. On the 18th to 23rd days after the application of the herbicide, the growth of the respective plants was visually observed, and the herbicidal effects were evaluated by the growth controlling degrees (%) ranging from 0 (equivalent to the non-treated plot) to 100 (complete kill), whereby the results shown in Table 3, were obtained.

corn [9] = assay: Test Example 1: foliage treatment, upland pot test; type: in vivo, Zea mays L.; details: crop, active ingredient 500 g/ha, observed 18th to 23rd day, 0 = non-treated, 100 = complete kill
Procedure, shortened: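 In this upland pot foliage test, corn plants at 2.1 to 3.2 leaf stages were sprayed by a small size sprayer. The spray was a conventionally formulated wettable powder or emulsifiable concentrate weighed to a set active ingredient amount, diluted in water at 500 L/ha, plus 0.1% (v/v) agricultural spreader. Visual assessment on days 18 to 23 gave growth controlling degree (%), where 0 equals untreated and 100 means complete kill.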

soybean [10] = assay: Test Example 1: foliage treatment, upland pot test; type: in vivo, Glycine max Merr.; details: crop, active ingredient 500 g/ha, observed 18th to 23rd day, 0 = non-treated, 100 = complete kill
Procedure, shortened: as §1

barnyardgrass [11] = assay: Test Example 2: soil surface treatment, upland pot test; type: in vivo, Echinochloa crus-galli L.; details: observed 20th to 28th day
Procedure, shortened: (§2)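 Visual growth-control ratings, from 0 (like the non-treated plot) to 100 (total kill), were made between days 20 and 28 after a soil-surface spray. The compound, formulated as wettable powder or emulsifiable concentrate and diluted at 1,500 L/ha, went on one day post-sowing in upland-soil pots of 1/170,000 ha.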

crabgrass [12] = assay: as above; type: in vivo, Digitaria sanguinalis L.; details: observed 20th to 28th day
Procedure, shortened: as §2

green foxtail [13] = assay: as above; type: in vivo, Setaria viridis L.; details: observed 20th to 28th day
Procedure, shortened: as §2

redroot pigweed [14] = assay: as above; type: in vivo, Amaranthus retroflexus L.; details: observed 20th to 28th day
Procedure, shortened: as §2

prickly sida [15] = assay: as above; type: in vivo, Sida spinosa L.; details: observed 20th to 28th day
Procedure, shortened: as §2

velvetleaf [16] = assay: as above; type: in vivo, Abutilon theophrasti MEDIC.; details: observed 20th to 28th day
Procedure, shortened: as §2

rice [17] = assay: as above; type: in vivo, Oryza sativa L.; details: observed 20th to 28th day
Procedure, shortened: as §2

wheat [18] = assay: as above; type: in vivo, Triticum spp.; details: observed 20th to 28th day
Procedure, shortened: as §2

corn [19] = assay: as above; type: in vivo, Zea mays L.; details: active ingredient 500 g/ha, observed 20th to 28th day
Procedure, shortened: as §2

soybean [20] = assay: as above; type: in vivo, Glycine max Merr.; details: observed 20th to 28th day
Procedure, shortened: as §2

barnyardgrass [21] = assay: Test Example 3: paddy pot test, application under submerged conditions; type: in vivo, Echinochloa crus-galli L.; details: active ingredient 250 g/ha; submerged application at 0.5 leaf stage; visually observed 14 days after application; 0 = non-treated, 100 = complete kill
Procedure, shortened: (§3)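 Visual growth-control rating (0 = untreated, 100 = complete kill) 14 days after treatment. The formulated compound, as a diluted wettable powder or emulsifiable concentrate, went into 3–4 cm flood water at a predetermined active-ingredient dose once the weeds reached 0.5 leaf stage (wapato: primary leaf stage).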

japanese bulrush = assay: as above; type: in vivo, Scirpus juncoides; details: active ingredient 250 g/ha; submerged application at 0.5 leaf stage; visually observed 14 days after application; 0 = non-treated, 100 = complete kill
Procedure, shortened: as §3

rice (var. Nihonbare) = assay: Test Example 3: paddy pot test, transplanted rice; type: in vivo, Oryza sativa L.; details: active ingredient 250 g/ha, applied 4th day after transplantation, visually observed 21st day after application, 0 = non-treated, 100 = complete kill
Procedure, shortened: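 Rice (var. Nihonbare) at 2 leaf stage transplanted 3 cm deep into puddled paddy soil under 3–4 cm flooding; on day 4 after transplanting, diluted wettable powder or emulsifiable concentrate applied by pipette under submerged conditions at a set active-ingredient dose. Growth scored visually 21 days after application, 0 (untreated) to 100 (complete kill) %.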

| Compound | Growth controlling degree (%) Barnyardgrass (barnyardgrass [1]) [%] | Growth controlling degree (%) Crabgrass (crabgrass [2]) [%] | Growth controlling degree (%) Green foxtail (green foxtail [3]) [%] | Growth controlling degree (%) Redroot pigweed (redroot pigweed [4]) [%] | Growth controlling degree (%) Prickly sida (prickly sida [5]) [%] | Growth controlling degree (%) Velvetleaf (velvetleaf [6]) [%] | Growth controlling degree (%) Rice (rice [7]) [%] | Growth controlling degree (%) wheat (wheat [8]) [%] | Growth controlling degree (%) Corn (corn [9]) [%] | Growth controlling degree (%) Soybean (soybean [10]) [%] | Growth controlling degree (%) Barnyardgrass (barnyardgrass [11]; active ingredient 500 g/ha) [%] | Growth controlling degree (%) Crabgrass (crabgrass [12]; active ingredient 500 g/ha) [%] | Growth controlling degree (%) Green foxtail (green foxtail [13]; active ingredient 500 g/ha) [%] | Growth controlling degree (%) Redroot pigweed (redroot pigweed [14]; active ingredient 500 g/ha) [%] | Growth controlling degree (%) Prickly sida (prickly sida [15]; active ingredient 500 g/ha) [%] | Growth controlling degree (%) Velvetleaf (velvetleaf [16]; active ingredient 500 g/ha) [%] | Growth controlling degree (%) Rice (rice [17]; active ingredient 500 g/ha) [%] | Growth controlling degree (%) Barnyardgrass (barnyardgrass [21]) [%] | Growth controlling degree (%) Japanese bulrush (japanese bulrush) [%] | Growth controlling degree (%) Rice (rice (var. Nihonbare)) [%] | other results |
| --- | --- | --- | --- | --- | --- | --- | --- | --- | --- | --- | --- | --- | --- | --- | --- | --- | --- | --- | --- | --- | --- |
| Cc1ccc(OC(C)C(=O)N(C)C(c2cnccc2C(F)(F)F)C(C)C)cc1 (mixture of isomers) [I-131] | 70 | 80 | 70 | 70 | 70 | 50 | 30 | 50 | 50 | 80 | 100 | 100 | 100 | 30 | 60 | 0 | 20 | 100 | 95 | 10 | Growth controlling degree (%) wheat (wheat [18]; active ingredient 500 g/ha): 20%; Growth controlling degree (%) Corn (corn [19]): 10%; Growth controlling degree (%) Soyabean (soybean [20]; active ingredient 500 g/ha): 40% |
| CC(Oc1ccc(F)cc1)C(=O)N(C)C(c1cnccc1C(F)(F)F)C(C)C (mixture of isomers) [I-133] | 70 | 70 | 70 | 70 | 80 | 70 | 40 | 40 | 80 | 80 | 100 | 98 | 100 | 50 | 80 | 50 | 70 | 100 | 95 | 10 | Growth controlling degree (%) wheat (wheat [18]; active ingredient 500 g/ha): 40%; Growth controlling degree (%) Corn (corn [19]): 50%; Growth controlling degree (%) Soyabean (soybean [20]; active ingredient 500 g/ha): 30% |
| CC(C)C(c1cnccc1C(F)(F)F)N(C)S(=O)(=O)c1ccc(F)cc1 (racemic) [I-124] | 80 | 95 | 70 | 50 | 80 | 70 | 40 | 60 | 60 | 80 | 100 | 100 | 100 | 60 | 90 | 80 | 20 | 100 | 70 | 0 | Growth controlling degree (%) wheat (wheat [18]; active ingredient 500 g/ha): 10%; Growth controlling degree (%) Corn (corn [19]): 20%; Growth controlling degree (%) Soyabean (soybean [20]; active ingredient 500 g/ha): 30% |
| CCCCC(=O)N(C)C(c1cnccc1C(F)(F)F)C(C)C (stereo not shown) [I-199] | 70 | 80 | 70 | 60 | 70 | 60 | 50 | 50 | 60 | 60 | – | – | – | – | – | – | – | 100 | 98 | 40 | Growth controlling degree (%) Barnyardgrass (barnyardgrass [11]; active ingredient 250 g/ha): 100%; Growth controlling degree (%) Crabgrass (crabgrass [12]; active ingredient 250 g/ha): 100%; Growth controlling degree (%) Green foxtail (green foxtail [13]; active ingredient 250 g/ha): 100%; Growth controlling degree (%) Redroot pigweed (redroot pigweed [14]; active ingredient 250 g/ha): 70%; Growth controlling degree (%) Prickly sida (prickly sida [15]; active ingredient 250 g/ha): 80%; Growth controlling degree (%) Velvetleaf (velvetleaf [16]; active ingredient 250 g/ha): 50%; Growth controlling degree (%) Rice (rice [17]; active ingredient 250 g/ha): 90%; Growth controlling degree (%) wheat (wheat [18]; active ingredient 250 g/ha): 50%; Growth controlling degree (%) Soyabean (soybean [20]; active ingredient 250 g/ha): 20% |
